Measurements reported in ChEMBL document CHEMBL5584362, “Sucurchalasins A and B, Sulfur-Containing Heterodimers of a Cytochalasan and a Macrolide from the Endophytic Fungus Aspergillus spelaeus GDGJ-286” (J Nat Prod, 2024).
Values after ≈ are worked out from the molar mass of the structure shown. Active and inactive are the calls of the source. The calls are words filed in the database; no cut-off is given here.

Assays:
Salmonella typhi [1] = assay: Antibacterial activity against Salmonella typhi at 25 ug/ml measured after 20 to 45 mins by broth microdilution method; type: functional, organism-based; conditions: Salmonella enterica subsp. enterica serovar Typhi; dose 25.0 µg/ml, time 20-45 min
A2780 [2] = assay: Cytotoxicity against human A2780 cells by MTT assay; type: functional, cell-based
SK-OV-3 = assay: Cytotoxicity against human SK-OV-3 cells by MTT assay; type: functional, cell-based
HeLa = assay: Cytotoxicity against human HeLa cells by MTT assay; type: functional, cell-based
HepG2 = assay: Cytotoxicity against human HepG2 cells by MTT assay; type: functional, cell-based
A2780 [3] = assay: Induction of apoptosis in human A2780 cells assessed as chromatin condensation at 1 to 9 uM measured after 48 hrs by Hoechst 33258 staining based assay; type: functional, cell-based; conditions: dose 1-9 µM
A2780 [4] = assay: Induction of apoptosis in human A2780 cells assessed as chromatin fragmentation at 1 to 9 uM measured after 48 hrs by Hoechst 33258 staining based assay; type: functional, cell-based; conditions: dose 1-9 µM
A2780 [5] = assay: Induction of apoptosis in human A2780 cells assessed as increase in early apoptotic cells measured after 48 hrs by Annexin V-FITC/PI staining based FACS analysis; type: functional, cell-based; conditions: dose 1-9 µM
A2780 [6] = assay: Induction of apoptosis in human A2780 cells assessed as increase in late apoptotic cells measured after 48 hrs by Annexin V-FITC/PI staining based FACS analysis; type: functional, cell-based; conditions: dose 1-9 µM
A2780 [7] = assay: Induction of apoptosis in human A2780 cells assessed as viable cells at 1 uM measured after 48 hrs by Annexin V-FITC/PI staining based FACS analysis (reference value: 92.6 to 92.8%); type: functional; conditions: read-out: Activity
A2780 [8] = assay: Induction of apoptosis in human A2780 cells assessed as early apoptotic cells at 1 uM measured after 48 hrs by Annexin V-FITC/PI staining based FACS analysis (reference value: 1.68 to 1.9%); type: functional
A2780 [9] = assay: Induction of apoptosis in human A2780 cells assessed as late apoptotic cells at 1 uM measured after 48 hrs by Annexin V-FITC/PI staining based FACS analysis (reference value: 2.32 to 2.4%); type: functional
A2780 [10] = assay: Induction of apoptosis in human A2780 cells assessed as necrotic cells at 1 uM measured after 48 hrs by Annexin V-FITC/PI staining based FACS analysis (reference value: 1.34 to 3.3%); type: functional
A2780 [11] = assay: Induction of apoptosis in human A2780 cells assessed as viable cells at 3 uM measured after 48 hrs by Annexin V-FITC/PI staining based FACS analysis (reference value: 92.6 to 92.8%); type: functional; conditions: read-out: Activity
A2780 [12] = assay: Induction of apoptosis in human A2780 cells assessed as early apoptotic cells at 3 uM measured after 48 hrs by Annexin V-FITC/PI staining based FACS analysis (reference value: 1.68 to 1.9%); type: functional
A2780 [13] = assay: Induction of apoptosis in human A2780 cells assessed as late apoptotic cells at 3 uM measured after 48 hrs by Annexin V-FITC/PI staining based FACS analysis (reference value: 2.32 to 2.4%); type: functional
A2780 [14] = assay: Induction of apoptosis in human A2780 cells assessed as necrotic cells at 3 uM measured after 48 hrs by Annexin V-FITC/PI staining based FACS analysis (reference value: 1.34 to 3.3%); type: functional
A2780 [15] = assay: Induction of apoptosis in human A2780 cells assessed as viable cells at 9 uM measured after 48 hrs by Annexin V-FITC/PI staining based FACS analysis (reference value: 92.6 to 92.8%); type: functional; conditions: read-out: Activity
A2780 [16] = assay: Induction of apoptosis in human A2780 cells assessed as early apoptotic cells at 9 uM measured after 48 hrs by Annexin V-FITC/PI staining based FACS analysis (reference value: 1.68 to 1.9%); type: functional
A2780 [17] = assay: Induction of apoptosis in human A2780 cells assessed as late apoptotic cells at 9 uM measured after 48 hrs by Annexin V-FITC/PI staining based FACS analysis (reference value: 2.32 to 2.4%); type: functional
A2780 [18] = assay: Induction of apoptosis in human A2780 cells assessed as necrotic cells at 9 uM measured after 48 hrs by Annexin V-FITC/PI staining based FACS analysis (reference value: 1.34 to 3.3%); type: functional
Shigella dysenteriae = assay: Antibacterial activity against Shigella dysenteriae measured after 20 to 45 mins by broth microdilution method; type: functional; conditions: time 20-45 min
Enterococcus faecalis = assay: Antibacterial activity against Enterococcus faecalis measured after 20 to 45 mins by broth microdilution method; type: functional; conditions: time 20-45 min
Bacillus subtilis = assay: Antibacterial activity against Bacillus subtilis measured after 20 to 45 mins by broth microdilution method; type: functional; conditions: time 20-45 min
Vibrio parahaemolyticus [19] = assay: Antibacterial activity against Vibrio parahaemolyticus at 25 ug/ml measured after 20 to 45 mins by broth microdilution method; type: functional, organism-based; conditions: dose 25.0 µg/ml, time 20-45 min
Staphylococcus aureus [20] = assay: Antibacterial activity against Staphylococcus aureus at 25 ug/ml measured after 20 to 45 mins by broth microdilution method; type: functional, organism-based; conditions: dose 25.0 µg/ml, time 20-45 min
Escherichia coli [21] = assay: Antibacterial activity against Escherichia coli at 25 ug/ml measured after 20 to 45 mins by broth microdilution method; type: functional, organism-based; conditions: dose 25.0 µg/ml, time 20-45 min
Vibrio parahaemolyticus [22] = assay: Antibacterial activity against Vibrio parahaemolyticus measured after 20 to 45 mins by broth microdilution method; type: functional; conditions: time 20-45 min
Staphylococcus aureus [23] = assay: Antibacterial activity against Staphylococcus aureus measured after 20 to 45 mins by broth microdilution method; type: functional; conditions: time 20-45 min
Escherichia coli [24] = assay: Antibacterial activity against Escherichia coli measured after 20 to 45 mins by broth microdilution method; type: functional; conditions: time 20-45 min
Salmonella typhi [25] = assay: Antibacterial activity against Salmonella typhi measured after 20 to 45 mins by broth microdilution method; type: functional, Salmonella enterica subsp. enterica serovar Typhi; conditions: Salmonella enterica; time 20-45 min

SMILES	Activity (Salmonella typhi [1])	IC50 (A2780 [2]) [µM]	IC50 (SK-OV-3) [µM]	IC50 (HeLa) [µM]	IC50 (HepG2) [µM]	Activity (A2780 [3])	Activity (A2780 [4])	Activity (A2780 [5])	Activity (A2780 [6])	viability at 1 µM (A2780 [7]) [%]	Activity (A2780 [8]) [%]	Activity (A2780 [9]) [%]	Activity (A2780 [10]) [%]	MIC (Shigella dysenteriae) [µg/mL]	MIC (Enterococcus faecalis) [µg/mL]	MIC (Bacillus subtilis) [µg/mL]	MIC (Vibrio parahaemolyticus [22]) [µg/mL]	MIC (Staphylococcus aureus [23]) [µg/mL]	MIC (Escherichia coli [24]) [µg/mL]	MIC (Salmonella typhi [25]) [µg/mL]	further results
CC1=C[C@@H]2/C=C(\C)CC[C@@H](O)C(=O)C[C@@H](S[C@H]3CCC[C@H](C)OC(=O)Cc4cc(O)cc(O)c4C(=O)C3)C(=O)[C@]23C(=O)N[C@@H](CC(C)C)[C@@H]3[C@@H]1C	inactive	8.3	20	23	11	Active	Active	Dose-Dependent Effect	Dose-Dependent Effect	91	1.4	3.56	4.07	13 (≈ 18 µM)	3.1 (≈ 4.28 µM)	6.3 (≈ 8.7 µM)					viability at 3 µM (A2780 [11]): 87%; Activity (A2780 [12]): 5.4%; Activity (A2780 [13]): 5.46%; Activity (A2780 [14]): 2.16%; viability at 9 µM (A2780 [15]): 26%; Activity (A2780 [16]): 53.2%; Activity (A2780 [17]): 19.1%; Activity (A2780 [18]): 1.87%; Activity (Vibrio parahaemolyticus [19]): inactive; Activity (Staphylococcus aureus [20]): inactive; Activity (Escherichia coli [21]): inactive
C[C@H]1CCC(=O)CCC(=O)c2c(O)cc(O)cc2CC(=O)O1		> 20	> 20	> 20	> 20									> 25	> 25	> 25	> 25	> 25	> 25	> 25	
CO[C@H]1CCC[C@H](C)OC(=O)Cc2cc(O)cc(O)c2C(=O)C1 [11ALPHA-METHOXYCURVULARIN]		> 20	> 20	> 20	> 20									> 25	> 25	> 25	> 25	> 25	> 25	> 25	
CC1=C[C@@H]2/C=C(\C)CC[C@@H](O)C(=O)C[C@@H](S[C@@H]3CCC[C@H](C)OC(=O)Cc4cc(O)cc(O)c4C(=O)C3)C(=O)[C@]23C(=O)N[C@@H](CC(C)C)[C@@H]3[C@@H]1C	inactive	3.9	13	10	15	Active	Active	Dose-Dependent Effect	Dose-Dependent Effect	94	1.35	1.71	2.91	13 (≈ 18 µM)	3.1 (≈ 4.28 µM)	6.3 (≈ 8.7 µM)					viability at 3 µM (A2780 [11]): 90.9%; Activity (A2780 [12]): 4.85%; Activity (A2780 [13]): 2.87%; Activity (A2780 [14]): 1.38%; viability at 9 µM (A2780 [15]): 27.1%; Activity (A2780 [16]): 56.8%; Activity (A2780 [17]): 14.9%; Activity (A2780 [18]): 1.19%; Activity (Vibrio parahaemolyticus [19]): inactive; Activity (Staphylococcus aureus [20]): inactive; Activity (Escherichia coli [21]): inactive
CC1=C[C@@H]2/C=C(\C)CC[C@H](O)[C@H](O)/C=C/C(=O)O[C@]23C(=O)N[C@@H](CC(C)C)[C@@H]3[C@@H]1C [ASPOCHALASIN I]		> 20	> 20	> 20	> 20									> 25	> 25	> 25	> 25	> 25	> 25	> 25	
CC1=C[C@@H]2/C=C(\C)CC[C@@H](O)[C@@H](O)[C@H](O)CC(=O)[C@]23C(=O)N[C@@H](CC(C)C)[C@@H]3[C@@H]1C		> 20	> 20	> 20	> 20									> 25	> 25	> 25	> 25	> 25	> 25	> 25	
